Reference: patent US11395479B2, “Method to reduce microbial bloom in poultry hatchery” (Novozymes A/S, priority 2016, dated 2022)

Key:
Assay type in all cases: in vivo, commercial broiler chicks
Conditions in all cases: gut of DOH chicks, n = 12, ± Std Err
[1] = system: presumptive Lactic Acid Bacteria (LAB); test: Gut counts of day of hatch chicks: presumptive LAB on MRS agar
[2] = system: Gram-negative bacteria; test: Gut counts of day of hatch chicks: Gram-negative bacteria on MacConkey's agar
[3] = system: thermotolerant spores; test: Gut counts of day of hatch chicks: thermotolerant spores on TSA
Experimental: Guts from chicks treated with either the bacterial formulation of example 3 or formaldehyde were tested for thermotolerant spores, presumptive Lactic Acid Bacteria (LAB) and Gram-negative bacteria.
Directly prior to chick removal from the hatchers twelve birds per treatment group were removed from the hatcher. Birds were transported (˜1 h) to an appropriate research facility and humanely euthanized by CO2 asphyxiation. Gut packs containing duodenum, ileum, and ceca were aseptically removed and separately homogenized. Gut samples were diluted in sterile saline at a 1:4 wt/vol rate. Ten-fold dilutions were made by placing 200 μl of the sample (N) into the first row of a sterile 96-well plate and sequentially diluting by transferring 20 μl to 180 μl sterile saline to the 10^−7 dilution. The dilutions (N to 10^−7) were plated by 10 μl drop onto both MRS agar and MacConkey's agar. For Trypticase soy agar (TSA) plating, the gut samples were Pasteurized at 80° C. for 10 min before transferring 200 μl into a 96 well plate. The rest of the dilutions and plating methods were the same as the MRS and MacConkey's agar. Agar plates were counted after 24 h of incubation at 37° C.

Question: With `C=O` [Formaldehyde] as the compound, how does the “presumptive Lactic Acid bacteria counts, MRS agar, Exp 1” value ([1]; Exp 1) read?
Answer: The value was 7.79 ± 0.17 Log10 CFU/g.

Question: And the “presumptive Lactic Acid bacteria counts, MRS agar, Exp 2” value ([1]; Exp 2)?
Answer: The value was 7.26 ± 0.34 Log10 CFU/g.

Question: And the “presumptive Lactic Acid bacteria counts, MRS agar, Exp 3” value ([1]; Exp 3)?
Answer: The value was 6.26 ± 0.83 Log10 CFU/g.

Question: What about the “presumptive Lactic Acid bacteria counts, MRS agar, Exp 4” value ([1]; Exp 4) of the same compound?
Answer: The value was 5.1 ± 0.99 Log10 CFU/g.

Question: What about the “presumptive Lactic Acid bacteria counts, MRS agar, Exp 5” value ([1]; Exp 5) of the same compound?
Answer: Its value is 2.85 ± 0.96 Log10 CFU/g.

Question: And the “presumptive Gram-negative bacteria counts, MacConkey's agar, Exp 1” value ([2]; Exp 1)?
Answer: Its value is 8.39 ± 0.19 Log10 CFU/g.

Question: What about the “presumptive Gram-negative bacteria counts, MacConkey's agar, Exp 2” value ([2]; Exp 2) of the same compound?
Answer: Its value is 6.56 ± 0.83 Log10 CFU/g.

Question: And the “presumptive Gram-negative bacteria counts, MacConkey's agar, Exp 3” value ([2]; Exp 3)?
Answer: The value was 3.9 ± 0.93 Log10 CFU/g.

Question: What about the “presumptive Gram-negative bacteria counts, MacConkey's agar, Exp 4” value ([2]; Exp 4) of the same compound?
Answer: Its value is 4.95 ± 0.99 Log10 CFU/g.

Question: What about the “presumptive Gram-negative bacteria counts, MacConkey's agar, Exp 5” value ([2]; Exp 5) of the same compound?
Answer: Its value is 2.84 ± 0.92 Log10 CFU/g.

Question: And the “thermotolerant spore counts, TSA, Exp 1” value ([3]; Exp 1, samples not pasteurized)?
Answer: The value was 8.95 ± 0.2 Log10 CFU/g.

Question: What about the “thermotolerant spore counts, TSA, Exp 2” value ([3]; Exp 2, pasteurized) of the same compound?
Answer: Its value is 1.34 ± 0.48 Log10 CFU/g.

Question: And the “thermotolerant spore counts, TSA, Exp 3” value ([3]; Exp 3, pasteurized)?
Answer: The value was 0.69 ± 0.36 Log10 CFU/g.

Question: And the “thermotolerant spore counts, TSA, Exp 4” value ([3]; Exp 4, pasteurized)?
Answer: Its value is 0.44 ± 0.3 Log10 CFU/g.

Question: And the “thermotolerant spore counts, TSA, Exp 5” value ([3]; Exp 5, pasteurized)?
Answer: Its value is 0 ± 0 Log10 CFU/g.
